From patent US8242078B2, “Therapeutics to inhibit MLL-menin interaction for treating leukemia” (The University of Chicago, priority 2006, dated 2012)
“Also recorded” adds a separate entry of the source. Peptide text beside a SMILES is read from it.

How the values were obtained:
[1] = test system: normal human CD34+ cells; assay: Myeloid differentiation of normal human CD34+ cells, day 10; format: cell-based; settings: 7.5 μm or 10 μm
Protocol: (§1) To assess the effects of TAT-MLL peptide on hematopoiesis, normal human CD34^+ cells were incubated with either the TAT-MLL peptide or the TAT-scrambled peptide at a concentration of either 7.5 μm or 10 μm. There was no effect of either the TAT-MLL peptide or the TAT-scrambled peptide on myeloid or erythroid differentiation. […] CD14-PE, CD15-FITC, CD71-FITC and GlyA (CD235a)-PE antibodies were obtained from Becton Dickinson

[2] = test system: normal human CD34+ cells; assay: Erythroid differentiation of normal human CD34+ cells, day 10; format: cell-based; settings: 7.5 μm or 10 μm
Protocol: as §1

[3] = molecular target: T1, interaction of transfected MLL with endogenous menin (Homo sapiens, UniProt O00255); assay: Disruption of binding of transfected FLAG-tagged MLL 1-330 to endogenous menin (anti-FLAG immunoprecipitation, anti-menin Western blot); settings: each peptide tested at 10, 20, and 30 μM
T1 construct: endogenous in cells; host or cells: 293 cells (lysate; cells transfected with FLAG-MLL 1-330)
T1 sequence (O00255 1-610): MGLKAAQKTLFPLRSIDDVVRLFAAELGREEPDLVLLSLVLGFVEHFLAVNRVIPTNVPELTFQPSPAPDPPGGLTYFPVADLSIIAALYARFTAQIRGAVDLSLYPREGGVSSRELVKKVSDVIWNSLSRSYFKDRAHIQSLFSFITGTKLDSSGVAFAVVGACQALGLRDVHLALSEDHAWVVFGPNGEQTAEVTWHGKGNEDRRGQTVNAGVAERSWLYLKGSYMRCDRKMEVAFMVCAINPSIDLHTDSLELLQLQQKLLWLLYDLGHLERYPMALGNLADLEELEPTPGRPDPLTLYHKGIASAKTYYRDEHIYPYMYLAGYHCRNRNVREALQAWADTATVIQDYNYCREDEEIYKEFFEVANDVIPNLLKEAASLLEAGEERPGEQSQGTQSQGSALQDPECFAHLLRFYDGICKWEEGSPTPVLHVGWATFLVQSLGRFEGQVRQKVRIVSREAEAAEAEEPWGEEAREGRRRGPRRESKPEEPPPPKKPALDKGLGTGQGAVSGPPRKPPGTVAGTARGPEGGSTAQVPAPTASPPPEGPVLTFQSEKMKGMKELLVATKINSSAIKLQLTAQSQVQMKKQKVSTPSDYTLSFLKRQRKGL
Protocol: To determine the precise domain that mediates the binding of MLL to menin, a series of peptides from the N-terminus of MLL were synthesized. To assess disruption of binding of transfected MLL to endogenous menin, a FLAG-tagged MLL 1-330 construct was transfected into 293 cells and the cell lysates were incubated with a series of peptides listed below or with water as a control. Cell lysates were immunoprecipitated with anti-FLAG antibody (Sigma), separated by SDS-PAGE and blotted with an anti-menin antibody (Bethyl Laboratories Inc, or Santa-Cruz). The amino acid numbers from the N-terminus of MLL are indicated below (preceding the amino acid sequence) for the peptides analyzed for their ability to disrupt the interaction of MLL and menin.
Conditional inactivation of menin results in the reversal of the transforming properties of MLL fusion proteins. A high affinity menin binding domain has been localized to the N-terminal residues of MLL, and deletion of residues 6 through 10 of MLL prevents MLL-ELL from transforming hematopoietic progenitor cells. To target the MLL-menin interaction, a series of peptides were developed for the potential to block the interaction of menin with MLL. To establish the activity of these peptides, lysates of cells transfected with FLAG-tagged N-terminal MLL sequences were examined. The lysates were immunoprecipitated with a FLAG antibody, incubated with either an MLL peptide or a control scrambled peptide, and then blotted with an anti-menin antibody. […] To examine the activity of the TAT-MLL peptide, mouse and human leukemia cell lines were treated with the TAT-MLL peptide. […] (#TIB-202, American Type Culture Collection, Manassas, Va.).

[4] = test system: Leukemia cell lines; assay: Relative growth inhibition of TAT-MLL vs TAT-MLL mutant (MTS cell proliferation assay); format: cell-based

Molecule	effect on myeloid differentiation (in words) [1]	effect on erythroid differentiation (in words) [2]	inhibition of the binding of transfected MLL 1-330 to endogenous menin (Western blot, FIG. 2) [3]	effect on proliferation, TAT-MLL vs TAT-MLL mutant (FIG. 6) [4]
C[C@H](NC(=O)[C@H](CCCNC(=N)N)NC(=O)CNC(=O)CNC(=O)[C@H](CCCNC(=N)N)NC(=O)[C@H](CCCNC(=N)N)NC(=O)[C@H](CCCNC(=N)N)NC(=O)[C@H](CCC(N)=O)NC(=O)[C@H](CCCNC(=N)N)NC(=O)[C@H](CCCNC(=N)N)NC(=O)[C@H](CCCCN)NC(=O)[C@H](CCCCN)NC(=O)[C@@H](N)CCCNC(=N)N)C(=O)N[C@@H](Cc1ccccc1)C(=O)N[C@@H](CCCNC(=N)N)C(=O)N1CCC[C@H]1C(=O)N[C@@H](CS)C(=O)N1CCC[C@H]1C(=O)N[C@@H](CCCNC(=N)N)C(=O)N[C@@H](Cc1c[nH]c2ccccc12)C(=O)NCC(=O)O [TAT-scrambled, RKKRRQRRR-GG-RAFRPCPRWG (SEQ ID NO: 18), reference compound] (H-RKKRRQRRRGGRAFRPCPRWG-OH)	no effect	no effect		
RKKRRQRRR-GG-CRWRFGARGG (SEQ ID NO: 16) (RKKRRQRRRGGCRWRFGARGG) [TAT-MLL-G 5-14, TAT-MLL 5-14 peptide with prolines replaced by glycines, used as a control, reference compound]			did not inhibit the binding of MLL1-330 with menin; also recorded: did not block the interaction of MLL with menin	significantly decreases the effect of the peptide on proliferation
